Among the data in ChEMBL document CHEMBL1146745, “Studies on anti-Helicobacter pylori agents. Part 3: A novel, efficacious cephem derivative, FR193879” (Bioorg Med Chem Lett, 2004) are Km, Ratio and Vmax values, retold here.

Assay [1] has as its target Beta-lactamase TEM (Escherichia coli) (UniProt P62593). Nature of the assay: Stability towards penicillinase was determined.
Assay [2] has the same target. As to the kind of experiment: Relative stability towards penicillinase was determined.
The target is the same in assay [3]. Nature of the assay: Stability towards beta-lactamase was determined in penicillinase.

`NC(=O)Cc1csc(SC2=C(C(=O)O)N3C(=O)[C@@H](NC(=O)Cc4ccccc4)[C@H]3SC2)n1`: the Km in assay [1] came to 34.8 µg/mL. Moreover, the Ratio in assay [2] was 9.38. The Vmax in assay [3] amounted to 1.18.
